Our source for the relative viability values is the supplement of paper PMC10307832.

Holding throughout (assay): relative viability (nuclei count vs DMSO), 5 days (fraction); higher = more cells survive
Compound in assay [1]: CCn1c(-c2nonc2N)nc2c(C#CC(C)(C)O)ncc(OC[C@H]3CCCNC3)c21 + Cc1cc(Nc2cc(N3CCN(C)CC3)nc(Sc3ccc(NC(=O)C4CC4)cc3)n2)n[nH]1 [Tozasertib] (partner 0.1 µM)
The essentials:
(§1)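 Medians of duplicate plates are given as relative viability. That measure is the nuclei count in treated wells divided by the count in vehicle wells. Counts were taken on 4× images of lung cancer cell lines in 1536-well plates, 5 days after pin-tool dosing the day after seeding with one drug alone or a fixed anchor-drug dose plus five library-drug doses (not always all listed) in √10 steps.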

Compound in the assay “BAM7 + Navitoclax”: CCOC1=CC=CC=C1N=NC2=C(NN(C2=O)C3=NC(=CS3)C4=CC=CC=C4)C [BAM7] + CC1(C)CCC(c2ccc(Cl)cc2)=C(CN2CCN(c3ccc(C(=O)NS(=O)(=O)c4ccc(N[C@H](CCN5CCOCC5)CSc5ccccc5)c(S(=O)(=O)C(F)(F)F)c4)cc3)CC2)C1 [Navitoclax] (partner 0.5 µM)
The essentials: as §1

Compound in assay [2]: CCn1c(-c2nonc2N)nc2c(C#CC(C)(C)O)ncc(OC[C@H]3CCCNC3)c21 + Nc1nc2[nH]cc(CCc3ccc(C(=O)N[C@@H](CCC(=O)O)C(=O)O)cc3)c2c(=O)[nH]1 [Pemetrexed] (partner 0.2 µM)
The essentials: as §1

Compound in the assay “BAM7 + Dasatinib”: CCOC1=CC=CC=C1N=NC2=C(NN(C2=O)C3=NC(=CS3)C4=CC=CC=C4)C [BAM7] + Cc1nc(Nc2ncc(C(=O)Nc3c(C)cccc3Cl)s2)cc(N2CCN(CCO)CC2)n1 [Dasatinib] (partner 0.075 µM)
The essentials: as §1

Turning to SW 1573, the relative viability in assay [1] (first compound 0.01 µM) came to 0.175; in assay [1] (first compound 0.03162 µM), 0.179; in assay [1] (first compound 0.1 µM) it was 0.178; in assay [1] (first compound 0.3162 µM), 0.201; in assay [1] (first compound 1 µM), 0.14; in the assay with BAM7 + Navitoclax (first compound 0.5 µM), 0.89. Also, the relative viability came to 1.02 with BAM7 + Navitoclax (first compound 5 µM); 1.24 with BAM7 + Navitoclax (first compound 15.81 µM); 1.06 with BAM7 + Navitoclax (first compound 50 µM); 0.772 in assay [2] (first compound 0.01 µM); 0.773 in assay [2] (first compound 0.03162 µM); 0.765 in assay [2] (first compound 0.1 µM). The relative viability came to 0.646 in assay [2] (first compound 0.3162 µM); 0.736 in assay [2] (first compound 1 µM); 0.575 with BAM7 + Dasatinib (first compound 0.5 µM); 0.65 with BAM7 + Dasatinib (first compound 5 µM); 0.454 in the assay with BAM7 + Dasatinib (first compound 15.81 µM); 0.431 with BAM7 + Dasatinib (first compound 50 µM).
